In PubChem BioAssay (NCI):
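These data come from cells grown in 96-well plates and exposed to compound for 48 hours at five concentrations. TGI is the concentration that stops growth completely.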

What was measured:
Test in all cases: NCI tumour cell line growth inhibition, 48 h
786-0 renal = system: 786-0 renal
A498 renal = system: A498 renal
A549 NSCLC = system: A549 NSCLC
ACHN renal = system: ACHN renal
BT-549 breast = system: BT-549 breast
CAKI-1 renal = system: CAKI-1 renal
CCRF-CEM leukemia = system: CCRF-CEM leukemia
COLO 205 colon = system: COLO 205 colon
DU-145 prostate = system: DU-145 prostate
EKVX NSCLC = system: EKVX NSCLC
HCC-2998 colon = system: HCC-2998 colon
HCT-116 colon = system: HCT-116 colon
HCT-15 colon = system: HCT-15 colon
HL-60(TB) leukemia = system: HL-60(TB) leukemia
HOP-62 NSCLC = system: HOP-62 NSCLC
HOP-92 NSCLC = system: HOP-92 NSCLC
HS 578T breast = system: HS 578T breast
HT29 colon = system: HT29 colon
IGROV1 ovarian = system: IGROV1 ovarian
K-562 leukemia = system: K-562 leukemia
KM12 colon = system: KM12 colon
LOX IMVI melanoma = system: LOX IMVI melanoma
M14 melanoma = system: M14 melanoma
MALME-3M melanoma = system: MALME-3M melanoma
MCF7 breast = system: MCF7 breast
MDA-MB-231 breast = system: MDA-MB-231 breast
MDA-MB-435 = system: MDA-MB-435
MDA-N = system: MDA-N
MOLT-4 leukemia = system: MOLT-4 leukemia
NCI-H226 lung = system: NCI-H226 lung
NCI-H23 lung = system: NCI-H23 lung
NCI-H460 lung = system: NCI-H460 lung
NCI-H522 lung = system: NCI-H522 lung
NCI/ADR-RES ovarian = system: NCI/ADR-RES ovarian
OVCAR-3 ovarian = system: OVCAR-3 ovarian
OVCAR-4 ovarian = system: OVCAR-4 ovarian
OVCAR-5 ovarian = system: OVCAR-5 ovarian
OVCAR-8 ovarian = system: OVCAR-8 ovarian
PC-3 prostate = system: PC-3 prostate
RPMI-8226 leukemia = system: RPMI-8226 leukemia
RXF 393 renal = system: RXF 393 renal
SF-268 CNS = system: SF-268 CNS
SF-295 CNS = system: SF-295 CNS
SF-539 CNS = system: SF-539 CNS
SK-MEL-28 melanoma = system: SK-MEL-28 melanoma
SK-MEL-5 melanoma = system: SK-MEL-5 melanoma
SK-OV-3 ovarian = system: SK-OV-3 ovarian
SN12C renal = system: SN12C renal
SNB-19 CNS = system: SNB-19 CNS
SNB-75 CNS = system: SNB-75 CNS
SR leukemia = system: SR leukemia
SW-620 colon = system: SW-620 colon
T-47D breast = system: T-47D breast
TK-10 renal = system: TK-10 renal
U251 CNS = system: U251 CNS
UACC-257 melanoma = system: UACC-257 melanoma
UACC-62 melanoma = system: UACC-62 melanoma
UO-31 renal = system: UO-31 renal
SK-MEL-2 melanoma = system: SK-MEL-2 melanoma

## Cc1[nH]c2ncn(Nc3ccccc3)c(=N)c2c1Cc1ccccc1
786-0 renal
  TGI: > 100 µM
A498 renal
  TGI: > 100 µM
A549 NSCLC
  TGI: > 100 µM
ACHN renal
  TGI: > 100 µM
BT-549 breast
  TGI: > 100 µM
CAKI-1 renal
  TGI: > 70.6 µM
CCRF-CEM leukemia
  TGI: > 100 µM
COLO 205 colon
  TGI: > 100 µM
DU-145 prostate
  TGI: > 100 µM
EKVX NSCLC
  TGI: > 100 µM
HCC-2998 colon
  TGI: > 100 µM
HCT-116 colon
  TGI: > 100 µM
HCT-15 colon
  TGI: > 100 µM
HL-60(TB) leukemia
  TGI: > 100 µM
HOP-62 NSCLC
  TGI: > 100 µM
HOP-92 NSCLC
  TGI: > 100 µM
HS 578T breast
  TGI: > 100 µM
HT29 colon
  TGI: > 100 µM
IGROV1 ovarian
  TGI: 98.4 µM
K-562 leukemia
  TGI: > 100 µM
KM12 colon
  TGI: > 56.8 µM
LOX IMVI melanoma
  TGI: > 100 µM
M14 melanoma
  TGI: > 100 µM
MALME-3M melanoma
  TGI: > 100 µM
MCF7 breast
  TGI: > 100 µM
MDA-MB-231 breast
  TGI: > 100 µM
MDA-MB-435
  TGI: > 100 µM
MDA-N
  TGI: > 100 µM
MOLT-4 leukemia
  TGI: > 100 µM
NCI-H226 lung
  TGI: > 100 µM
NCI-H23 lung
  TGI: > 100 µM
NCI-H460 lung
  TGI: > 100 µM
NCI-H522 lung
  TGI: > 100 µM
NCI/ADR-RES ovarian
  TGI: > 100 µM
OVCAR-3 ovarian
  TGI: > 100 µM
OVCAR-4 ovarian
  TGI: > 100 µM
OVCAR-5 ovarian
  TGI: > 100 µM
OVCAR-8 ovarian
  TGI: > 100 µM
PC-3 prostate
  TGI: > 100 µM
RPMI-8226 leukemia
  TGI: > 100 µM
RXF 393 renal
  TGI: > 91.6 µM
SF-268 CNS
  TGI: > 100 µM
SF-295 CNS
  TGI: > 100 µM
SF-539 CNS
  TGI: > 100 µM
SK-MEL-28 melanoma
  TGI: > 100 µM
SK-MEL-5 melanoma
  TGI: > 100 µM
SK-OV-3 ovarian
  TGI: > 100 µM
SN12C renal
  TGI: > 100 µM
SNB-19 CNS
  TGI: > 100 µM
SNB-75 CNS
  TGI: > 100 µM
SR leukemia
  TGI: > 100 µM
SW-620 colon
  TGI: > 100 µM
T-47D breast
  TGI: > 86.9 µM
TK-10 renal
  TGI: > 100 µM
U251 CNS
  TGI: > 100 µM
UACC-257 melanoma
  TGI: > 100 µM
UACC-62 melanoma
  TGI: > 100 µM
UO-31 renal
  TGI: > 100 µM

## CC(NC(=O)CNP(=O)(c1ccccc1)c1ccccc1)C(=O)NC(Cc1ccccc1)C(=O)OCc1ccccc1 (stereo not drawn)
786-0 renal
  TGI: 48.1 µM
A498 renal
  TGI: > 100 µM
A549 NSCLC
  TGI: > 100 µM
BT-549 breast
  TGI: > 100 µM
CAKI-1 renal
  TGI: > 100 µM
CCRF-CEM leukemia
  TGI: > 10 µM
COLO 205 colon
  TGI: > 10 µM
DU-145 prostate
  TGI: > 100 µM
EKVX NSCLC
  TGI: > 100 µM
HCT-116 colon
  TGI: > 100 µM
HCT-15 colon
  TGI: > 100 µM
HL-60(TB) leukemia
  TGI: > 100 µM
HOP-62 NSCLC
  TGI: > 100 µM
HOP-92 NSCLC
  TGI: > 100 µM
HS 578T breast
  TGI: > 100 µM
HT29 colon
  TGI: > 100 µM
IGROV1 ovarian
  TGI: > 100 µM
K-562 leukemia
  TGI: > 10 µM
KM12 colon
  TGI: > 100 µM
LOX IMVI melanoma
  TGI: 87.8 µM
M14 melanoma
  TGI: > 100 µM
MALME-3M melanoma
  TGI: > 100 µM
MCF7 breast
  TGI: 55 µM
MDA-MB-231 breast
  TGI: 96.6 µM
MDA-MB-435
  TGI: > 100 µM
MDA-N
  TGI: > 100 µM
MOLT-4 leukemia
  TGI: 47.1 µM
NCI-H226 lung
  TGI: > 100 µM
NCI-H23 lung
  TGI: > 100 µM
NCI-H522 lung
  TGI: 49.8 µM
NCI/ADR-RES ovarian
  TGI: > 100 µM
OVCAR-3 ovarian
  TGI: > 100 µM
OVCAR-5 ovarian
  TGI: > 100 µM
OVCAR-8 ovarian
  TGI: > 100 µM
PC-3 prostate
  TGI: > 100 µM
RPMI-8226 leukemia
  TGI: 98.5 µM
RXF 393 renal
  TGI: 75.5 µM
SF-268 CNS
  TGI: 57.2 µM
SF-295 CNS
  TGI: 42.5 µM
SF-539 CNS
  TGI: > 100 µM
SK-MEL-2 melanoma
  TGI: > 100 µM
SK-MEL-28 melanoma
  TGI: 49.3 µM
SK-MEL-5 melanoma
  TGI: 60.5 µM
SK-OV-3 ovarian
  TGI: 51.3 µM
SN12C renal
  TGI: > 100 µM
SNB-19 CNS
  TGI: > 100 µM
SNB-75 CNS
  TGI: 48.5 µM
SR leukemia
  TGI: 70.8 µM
SW-620 colon
  TGI: > 100 µM
T-47D breast
  TGI: > 100 µM
TK-10 renal
  TGI: > 100 µM
U251 CNS
  TGI: 62.3 µM
UACC-257 melanoma
  TGI: > 100 µM
UACC-62 melanoma
  TGI: > 100 µM
UO-31 renal
  TGI: > 100 µM
